{"source": "patent US6924100B2", "about": "“Gene alteration in the gene for the Gβ3-subunit of the human G protein” (priority 1998, dated 2005)", "key": {"[1]": {"system": "coronary vessels", "assay": "Coronary blood flow change after intracoronary BHT 933", "type": "in vivo, human", "details": "carriers of the GNB3-825T allele, with or without CHD, FIG. 8", "source_text": "An alpha2 adrenergic agonist (BHT 933) was applied intracoronary in the probands; it leads to contraction of coronary vessels. This effect was quantified via the flow change through these sections of the vessels. […] This means that in carriers of the GNB3-825T allele the intensification of the action of these pharmaceuticals can be predicted."}, "[2]": {"target": "T1, m2-muscarinergic receptor (Homo sapiens, UniProt P08172)", "T1 sequence (P08172 1-466)": "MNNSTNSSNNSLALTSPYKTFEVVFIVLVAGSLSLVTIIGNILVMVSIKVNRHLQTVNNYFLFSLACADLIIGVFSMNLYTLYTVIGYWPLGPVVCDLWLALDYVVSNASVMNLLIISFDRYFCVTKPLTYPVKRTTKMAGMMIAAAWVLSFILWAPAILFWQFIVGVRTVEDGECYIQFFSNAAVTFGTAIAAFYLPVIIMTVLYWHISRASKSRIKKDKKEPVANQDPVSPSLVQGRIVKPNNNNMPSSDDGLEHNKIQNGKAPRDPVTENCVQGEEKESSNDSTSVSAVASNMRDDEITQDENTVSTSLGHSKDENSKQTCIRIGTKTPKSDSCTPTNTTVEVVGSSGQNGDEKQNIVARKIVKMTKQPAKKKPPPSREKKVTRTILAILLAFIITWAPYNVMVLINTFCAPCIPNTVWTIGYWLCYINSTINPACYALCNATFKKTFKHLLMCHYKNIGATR", "assay": "G protein stimulation by carbachol in Sf9 cells expressing m2-muscarinergic receptor, Galphai3, Ggamma5 and Gβ3 or Gβ3s", "type": "cell-based", "details": "in the presence of Gβ3 (so in the source), FIG. 2", "source_text": "Here the m2-muscarinergic receptor is expressed together with the G protein subunits Galphai3 and Ggamma5 and either Gβ3 or Gbeta3-s in the Sf9 system."}, "[3]": {"system": "beta-adrenergic receptors", "assay": "Cardiac output after intravenous beta-adrenoceptor blocker", "type": "in vivo, human", "details": "average"}, "[4]": {"system": "males with penile dysfunction", "assay": "Erection score and arterial blood flow after prostaglandin E1 injection into the corpus cavernosum", "type": "in vivo, human", "details": "for males with insufficient or absent erection / males with sufficient erection (scores 4 and 5): 10 micrograms, of 87 males", "procedure": "When erectile dysfunction is present, prostaglandin E1 is injected into the corpus cavemosum for diagnostic clarification, but also possibly to begin long-term therapy. Prostaglandin E1 activates adenylcyclase, and the subsequent formation of cAMP relaxes smooth vascular muscle cells and thus induces an increased arterial blood flow and thus erection of the penis. The degree of the erection which occurs can be quantified via a point system (score 0-5). Here the scores 4 and 5 correspond to an erection which is sufficient for penetration, while scores<4 can be considered as insufficient.\nIn 87 males with penile dysfunction, 10 micrograms of prostaglandin E1 were administered with quantification of the erection score. Here the genotype distribution was as follows: Sufficient erection (scores 4 and 5): TT=3; TC=15; CC=16; (frequency of GNB3 825T allele: 30.9%). Insufficient or absent erection: TT=3; TC=16; CC=34; (frequency of the GNB3 825T allele: 20.8%)."}, "[5]": {"system": "neutrophilic granulocytes", "assay": "fMLP-stimulated chemotaxis of neutrophilic granulocytes", "type": "cell-based, human", "details": "granulocytes of carriers of the GNB3-825T allele, FIG. 5", "source_text": "It is therefore used as a test system for measurement of chemotactic reactions of cells which is well known to one skilled in the art. The fMLP receptor, as is known, activates the pertussis toxin-sensitive G proteins. The statement that granulocytes of carriers of the GNB3-825T allele show intensified fMLP-stimulated chemotaxis is in agreement with the fact that chemotaxis of betagamma subunits is mediated."}, "[6]": {"system": "phospholipase Cβ3 (PLCbeta3)", "assay": "Inositol phosphate formation in COS-7 cells transfected with PLCβ3, Ggamma12 and Gβ subunits", "type": "cell-based", "details": "betagamma dimers with Ggamma12, FIG. 16", "source_text": "It is generally known that betagamma subunits of heterotrimeric G proteins can stimulate different isoforms of the phospholipase Cbeta. This enzyme splits phospholipids, for example phosphatdylinositol-4,5-bisphosphate into the “second messenger” molecules inositol-1,4,5 triphosphate (IP3) and 1,2-diacylglycerol (DAG), IP3 causes release of calcium ions from intracellular reservoirs, while DAG activates different isoforms of the protein kinase C. Activation of phospholipase C is thus an important step in cell activation. It was examined whether betagamma subunits which contain Gβ3s-2 can activate the phospholipase Cβ3 (PLCbeta3). To do this the COS-7 cell system was used which is often used in the generally accessible literature for transient transfection of proteins. These cells were transfected with the PLCβ3, Ggamma12 and different Gβ subunits. The cells were pretreated with radioactively tagged [3H] inositol. The formation of inositol phosphates (IP) was quantified using standard methods, the amount of the 1P formed constituting a measure of the activation of the PLC. As is shown in FIG. 16, betagamma dimers which contain Gβ3, Gβ3s, or Gβ3s-2 can activate PLCβ33. Likewise, activation of PLCβ3 after transfection of Gβ1 is shown for comparison."}, "[7]": {"system": "G protein alpha subunits", "assay": "35S-GTPgammaS binding to permeabilized Sf9 cells (Galphai2, Ggamma12, m2 receptor) after carbachol", "type": "cell-based, human", "details": "carbachol 100 microM, versus no beta subunit, FIG. 15", "source_text": "First of all, it was studied whether G protein heterotrimers which contain Gβ3s-2 are functionally active. As described earlier, the Sf9 insect cell system was used for this purpose (Siffert, W., Rosskopf, D., Siffert, G., Busch, S., Moritz, A., Erbel, R., Sharma, A. M., Ritz, E.; Wichmann, H. E., Jakobs, K. H., and Horsthemke, B. Association of a human G protein β3 subunit variant with hypertension. Nat. Genet. 18(1): 45-48, 1998). The cells were transfected with Galphai2, Ggamma12 and the m2-muscarinergic acetylcholine receptor. The bonding of 35S-GTPgammaS to permeabilized cells was quantified after stimulation with carbachol (100 microM). Here the specific incorporation of 35S-GTPgammaS is a measure of the activation of G protein alpha subunits. […] Thus it is shown at the same time that Gβ3s-2 in spite of the deletion of one propeller blade is functionally active and even leads to intensified activation of G proteins. […] Galphai2, Galphai3, G-1, and G-2 are not mutated. Circ. Res. 79:974-983, 1996. Siffert, W., Rosskopf, D., Moritz, A., Wieland, T., Kaldenberg-Stasch, S., Kettler, N., Hartung, K., Bechmann, S., and Jakobs, K. H. Enhanced G protein activation in immortalized lymphoblasts from patients with essential hypertension. J. Clin. Invest. 96:759-766, 1995. Wirchow, S., Ansorge, N., Ruebben, H., Wiffert, G., and Siffert, W. Enhanced fMLP-stimulated chemotaxis in human neutrophils from individuals carrying out the G protein beta3 subunit 825T-allele. FEBS Lett. 436(2): 155-158, 1998)."}, "[8]": {"system": "G protein alpha-subunits", "assay": "[35S]GTPgammaS incorporation after Mas-7 stimulation, COS-7 transfection system", "type": "cell-based, human", "details": "COS-7 cells, FIG. 1", "source_text": "The subject matter of this invention is based on the finding that the Gβ3s subunit leads to increased activation capacity of G proteins. The increased activation capacity of G proteins was detected via transfection of the corresponding cDNAs and the expression of Gβ3 and Gβ3s in the COS-7 transfection system which is well known to one skilled in the art. […] To quantify the activation capacity of G proteins, here the incorporation of radioactively tagged [35S]GTPgammaS into G protein alpha-subunits after stimulation with the peptide mastoparan-7 (Mas-7) was measured."}}, "data": [{"molecule": "CCN1CCc2nc(N)oc2CC1", "note": "[BHT 933]", "values": [{"measurement": "reduction of coronary blood flow", "setting": "[1]", "value": "intensified reduction of coronary blood flow"}]}, {"molecule": "C[N+](C)(C)CCOC(N)=O", "note": "[carbachol]", "values": [{"measurement": "potency and efficiency of the agonist for stimulation of G proteins", "setting": "[2]", "value": "increased potency and increased efficiency"}]}, {"molecule": "CC(C)NCC(O)COc1cccc2ccccc12", "note": "(stereo not shown) [propanolol]", "values": [{"measurement": "decrease of cardiac output", "setting": "[3]; homozygotic C825 carriers", "value": 3, "unit": "mL"}, {"measurement": "decrease of cardiac output", "setting": "[3]; homozygotic and heterozygotic 828T (so in the source) allele carriers", "value": 12, "unit": "mL"}]}, {"molecule": "CCCCC[C@H](O)/C=C/[C@H]1[C@H](O)CC(=O)[C@@H]1CCCCCCC(=O)O", "note": "[prostaglandin E1]", "values": [{"measurement": "males with insufficient or absent erection", "setting": "[4]; genotype CC", "value": 34}, {"measurement": "males with sufficient erection (scores 4 and 5)", "setting": "[4]; genotype CC", "value": 16}, {"measurement": "males with insufficient or absent erection", "setting": "[4]; genotype TC", "value": 16}, {"measurement": "males with sufficient erection (scores 4 and 5)", "setting": "[4]; genotype TC", "value": 15}, {"measurement": "males with insufficient or absent erection", "setting": "[4]; genotype TT", "value": 3}, {"measurement": "males with sufficient erection (scores 4 and 5)", "setting": "[4]; genotype TT", "value": 3}, {"measurement": "increase of the arterial blood flow (doppler sonography)", "setting": "[4]; after injection, homozygotic C825 allele carriers", "value": "reduced increase of the arterial blood flow"}]}, {"molecule": "fMLP", "values": [{"measurement": "chemotaxis", "setting": "[5]", "value": "increased chemotaxis"}]}, {"molecule": "Gβ3: Gβ3-subunit of the human G protein (protein, UniProt P16520 1-340, looked up) Guanine nucleotide-binding …: MGEMEQLRQEAEQLKKQIADARKACADVTLAELVSGLEVVGRVQMRTRRTLRGHLAKIYAMHWATDSKLLVSASQDGKLIVWDSYTTNKVHAIPLRSSWVMTCAYAPSGNFVACGGLDNMCSIYNLKSREGNVKVSRELSAHTGYLSCCRFLDDNNIVTSSGDTTCALWDIETGQQKTVFVGHTGDCMSLAVSPDFNLFISGACDASAKLWDVREGTCRQTFTGHESDINAICFFPNGEAICTGSDDASCRLFDLRADQELICFSHESIICGITSVAFSLSGRLLFAGYDDFNCNVWDSMKSERVGILSGHDNRVSCLGVTADGMAVATGSWDSFLKIWN", "values": [{"measurement": "activation of PLCβ3 (inositol phosphate formation)", "setting": "[6]", "value": "can activate"}, {"measurement": "G protein activation (specific 35S-GTPgammaS incorporation)", "setting": "[7]", "value": "clearly intensified"}]}, {"molecule": "Gβ3s: alternative splice product of human GNB3 with loss of 41 amino acids (protein, listed as Homo sapiens) MGEMEQLRQEAEQLKKQIADARKACADVTLAELVSGLEVVGRVQMRTRRTLRGHLAKIYAMHWATDSKLLVSASQDGKLIVWDSYTTNKVHAIPLRSSWVMTCAYAPSGNFVACGGLDNMCSIYNLKSREGNVKVSRELSAHTGYLSCCRFLDDNNIVTSSGDTTCALWDIETGQQKTVFVGHTGDCMSLAVSPDFNLFISGACDASAKLWDVREGTCRQTFTGQESDINAICFFSLSGRLLFAGYDDFNCNVWDSMKSERVGILSGHDNRVSCLGVTADGMAVATGSWDSFLKIWN", "values": [{"measurement": "activation of PLCβ3 (inositol phosphate formation)", "setting": "[6]", "value": "can activate"}, {"measurement": "G protein activation (specific 35S-GTPgammaS incorporation)", "setting": "[7]", "value": "more potent than Gβ3"}, {"measurement": "activation capacity of G proteins ([35S]GTPgammaS incorporation)", "setting": "[8]", "value": "clearly increased compared to Gβ3"}]}, {"molecule": "Gβ3s-2: new splice variant of the Gβ3 subunit of human G protein, deletion of 43 amino acids, SEQ ID NO:4 (protein, listed as Homo sapiens) MGEMEQLRQEAEQLKKQIADARKACADVTLAELVSGLEVVGRVQMRTRRTLRGHLAKIYAMHWATDSKLLVSASQDGKLIVWDSYTTNKVHAIPLRSSWVMTCAYAPSGNFVACGGLDNMCSIYNLKSREGNVKVSRELSAHTGYLSCCRFLDDNNIVTSSGDTTCALWDIETGQQKTVFVGHTGDCMSLAVSPDFNLFISGACDASAKLWDVREGTCRQTFTGQESDINAICFFSLSGRLLFAGYDDFNCNVWDSMKSERVGILSGHDNRVSCLGVTADGMAVATGSWDSFLKIWN", "values": [{"measurement": "activation of PLCβ3 (inositol phosphate formation)", "setting": "[6]", "value": "can activate"}, {"measurement": "G protein activation (specific 35S-GTPgammaS incorporation)", "setting": "[7]", "value": "strongest potentiation"}]}]}
